In paper PMC7143967, “Extensive Therapeutic Drug Monitoring of Colistin in Critically Ill Patients Reveals Undetected Risks” (Microorganisms, 2020):
Bridge positions count the residues as written; N and C are the ends. Square brackets hold non-standard residues; d marks the D form. Peptide text beside a SMILES is read from it. * marks the point of attachment. X1 = CC[C@H](C)CCCCC(=O)*; Dab = NCC[C@H](N)C(=O)O

Assays:
[1] = test system: carbapenem resistant A. baumannii (CRAB); test: Clinical/microbiological outcome of CMS/Colistin treatment; format: in vivo, human (critically ill ICU patients)
Procedure: Microbiology testing was performed by the university’s Department of Microbiology. Samples included regular swab testing for screening purposes (nasal, inguinal, anal, tracheal) and specific testing of blood cultures, wound samples for detection of tissue infection, bronchoalveolar lavage (BAL) fluid and urine.

[2] = clinical; format: in vivo, human (critically ill ICU patients); settings: for t1/2 of Colistin: first-order fit
Procedure: (§1) Blood samples were immediately centrifuged and refrigerated.
While CMS is excreted primarily via the kidneys, Colistin elimination pathways remain unclear. […] We were able to calculate elimination half-life for Colistin in 6 out of 8 patients. In our cohort, elimination half-time was greatly extended to a mean of 22.0 h (Figure 2A). The individual half-life kinetics, including details on curve fitting, are provided in the Supplementary Materials (Supplementary Materials “Elimination half times of Colistin” Figures S1–S6). Individual elimination kinetics followed a first-order kinetic. In one patient (Patient 2), we established CRRT in the midst of the elimination time course. This allowed us to forward project kinetics without CRRT and backwards interpolate kinetics with CRRT. […] The amount of available CMS relevantly impacts upon Colistin levels, since CMS acts as a pro-drug. Thus, elimination of CMS is key to reduce Colistin plasma levels whereas CMS accumulation is the source for Colistin build up. CMS elimination can be rapidly affected by changes of renal function and distribution volume. CMS trough levels might indicate potential accumulation of CMS and subsequent accumulation of Colistin. This is of potential relevance when renal CMS elimination might be impaired.
Extensive Therapeutic Drug Monitoring Of
Supplemental material 1 – elimination half times of Colistin
Figure S1: plasma levels of Colistin after cessation of CMS administration. (A) linear
scaling of colistin plasma levels in [mg/L]; fit of an 1st decay elimination curve, y =
1,5111e-0,029x, R2= 0.97, p<0.001; (B) linear scaling colistin plasma levels in [mg/L] after
(also on this page, place not known: 1 st Colistin [mg/L] ln (Colistin [mg/L]) time [h] time [h] (A) (B))
(1 picture or pasted object on this page, not shown here)

[3] = Therapeutic drug monitoring of CMS and Colistin plasma levels by HPLC-MS/MS
Procedure: Eight critically ill patients, some of them under renal replacement therapy (continuous venovenous hemodialysis (CVVHD), intermittent HD (IHD)), infected with gram negative MDR pathogens were treated with CMS. Daily measurements of serum creatinine levels and estimation of glomerular filtration rate using the CKD-EPI Creatinine (eGFR CKD-EPI) equation [16] were used to monitor renal function. Samples were collected multiple times daily prior to/after every dose of CMS for trough/peak level determination of CMS and Colistin. After termination of the Colistin treatment course, samples were derived from the individual patient, to ensure complete and timely removal of Colistin. Blood samples were immediately centrifuged and refrigerated. The plasma was frozen and kept at −20 °C until analysis. After analysis samples were kept at −80 °C for long term storage.
We aimed for target Colistin serum levels of >2 mg/L in patients suffering from A. baumannii infection alone, or >4 mg/L in patients with singular Pseudomonas infections or combined infections. Dosing was done with or without a loading dose of 6–9 million international units (IU) Colistin and subsequent doses of either 3 × 2 million IU/day, 3 × 3 million IU/day, 3 × 4 million IU or 2 × 4.5 million IU, as indicated.
A total of 50 μL of plasma samples, calibrators and controls were precipitated with 200 μL of ice cold isopropanol containing 0.5 μg/mL polymyxin B as internal standard and 0.02% TFA. After 10 min at −20 °C, centrifuging 5 min with 20,000 g at 4 °C, 100 μL of the supernatant was diluted with 400 μL of the appropriate solvent (water or 30% DMSO in water respectively) and put into the auto sampler at 4 °C. LC-MS/MS system: Dionex UltiMate 3000 XRS autosampler, XRS quaternary UHPLC pump, RS Column compartment. Column used: Aeris Peptide 1.7 μm XB-C18 2.1 × 100 mm (Phenomenex), 40 °C. Mobile phases: Gradient starting with 19% lcms-grade acetonitrile (Baker) and 0.05% TFA (Sigma) in water (Milli-Q) to 40% within 1.6 min at a flow rate of 500 μL/min. Mass spectrometer: TSQ-Vantage triple quad mass spectrometer (Thermo Fisher Scientific, San Jose, CA, USA), HESI-source, positive electrospray ionization mode, settings: ionization voltage 3500 V, vaporizer temperature 500 °C, sheath gas flow 40 (arb), auxiliary gas flow 15 (arb), capillary temperature 200 °C and declustering voltage 10 V. For multiple reaction monitoring (MRM), argon was used as collision gas at a pressure of 1.1 × 10^−3 Torr. Doubly charged parent ions of Colistins (578.5/100.9, 585.4/100.9) and polymyxin B (602.4/100.9) were used for fragmentation and the product ions and collision energies have been optimized for best intensities. A detailed procedure protocol including description of standardization, sample preparation, sample stability etc., is available upon request.

[4] = cited from earlier work; for elimination by prolonged intermittent RRT: ref Schmidt et al. [24]
Source text: Colistin was isolated from Bacillus polymyxa subsp. colistinus and consists of a cyclic heptapeptide and a tripeptide side chain acetylated at the N-terminus by a fatty acid moiety. Earlier commercially available Colistin consisted of a mixture of several chemically related subcomponents, including the two major components Colistin A and Colistin B, with a known, concentration-dependent (nephro-, neuro-, oto-) toxicity. […] Following par ... || While CMS is excreted primarily via the kidneys, Colistin elimination pathways remain unclear. […] We were able to calculate elimination half-life for Colistin in 6 out of 8 patients. In our cohort, elimination half-time was greatly extended to a mean of 22.0 h (Figure 2A). […] Subsequently CRRT became necessary due to sustained renal failu ...

[5] = design: species or system human (critically ill ICU patients); settings: in vivo
Source text: as §1

## CC[C@H](C)CCCCC(=O)N[C@@H](CCN)C(=O)N[C@H](C(=O)N[C@@H](CCN)C(=O)N[C@H]1CCNC(=O)[C@H]([C@@H](C)O)NC(=O)[C@H](CCN)NC(=O)[C@H](CCN)NC(=O)[C@H](CC(C)C)NC(=O)[C@@H](CC(C)C)NC(=O)[C@H](CCN)NC1=O)[C@@H](C)O [Colistin] (X1-[Dab]T[Dab][Dab][Dab][dL]L[Dab][Dab]T; lactam 4-C)
[1]; Patient 1, CRAB wound infection, 3 × 3 million IU CMS, 7 days, colonization persisted
  result of treatment: eradication of the CRAB wound infection was achieved
[1]; Patient 2, CRAB bloodstream, wound and pulmonary infection, colonization and pulmonary infection remained
  result of treatment: cured the bloodstream infection
[1]; Patient 6, first treatment cycle, bloodstream and pulmonary CRAB infection
  result of treatment: bloodstream infection was cured but colonization persisted
[2]; Patient 1, eGFR 119 mL/min/1.73m^2, RRT none, R2 = 0.97
  t1/2 of Colistin: 23.6 h
[2]; Patient 2, eGFR 27 mL/min/1.73m^2, RRT none, R2 = 0.99
  t1/2 of Colistin: 23.43 h
[2]; Patient 4, eGFR 58 mL/min/1.73m^2, RRT CVVHDF, R2 = 0.996
  t1/2 of Colistin: 19.5 h
[2]; Patient 5, eGFR 59 mL/min/1.73m^2, RRT IHD, R2 = 0.98
  t1/2 of Colistin: 16.5 h
[2]; Patient 6, eGFR 99 mL/min/1.73m^2, RRT CVVHDF, R2 = 0.91
  t1/2 of Colistin: 30.9 h
[2]; Patient 8, eGFR 51 mL/min/1.73m^2, RRT IHD, R2 = 0.999
  t1/2 of Colistin: 17.9 h
[2]; human, in vivo, mean of 6 out of 8 patients, plasma after end of CMS treatment, first-order kinetic, read-out: elimination half-time of Colistin, mean (converted)
  half-life: 22 h
[3]; Patient 2, dose increased from 3 × 2 to 3 × 4 million IU
  time to Colistin levels >2 mg/L after dose increase: 48 h
[3]; Patient 4, loading dose 9 million IU, then 3 × 3 million IU CMS daily, target 4 mg/L
  time to sufficient Colistin levels: eight
[3]; Patient 4, under CVVHDF, 3 × 4 million IU per day
  time to target Css,avg of ~4 mg/L after dose increase: four
[3]; Patient 6, second treatment cycle, loading dose 9 million IU, then 3 million IU CMS three times a day
  time to Colistin plasma levels between 3–4 mg/L: 8 to 16 h
[3]; Patient 7, second treatment cycle, loading dose 9 million IU, 4.5 million IU twice daily, CVVHDF
  time to target Colistin plasma levels: three
[3]; Patient 8, IHD-adjusted dosing with loading dose of 9 million IU, CMS stopped after 3 days
  accumulation in plasma: rapid accumulation
[3]; human, in vivo
  level at 48 h: > 2000 ng/mL
  level at 96 h: ~4000 ng/mL
  level at 720 h: < 2000 ng/mL
[3]; plasma, sampled 30 min after CMS injection, all patients pooled, mean (±SD), n = 383, HPLC-MS/MS, unit not given
  mean Colistin peak level: 3.5 (±1.3, n = 383)
[3]; plasma, sampled immediately prior to CMS injection, all patients pooled, mean (±SD), n = 386, HPLC-MS/MS, unit not given
  mean Colistin trough level: 3.45 (±1.3, n = 386)
[4]
  elimination by prolonged intermittent RRT: up to 50%

## Colistin methanosulfate [CMS]
[1]; Patient 3, CRAB bloodstream and wound infection, after dose increase to 3 × 4 million IU
  result of treatment: eradication of both bloodstream and wound infection
[1]; Patient 4, in combination with surgical focus eradication, MDR Pseudomonas infection and colonization persisted
  result of treatment: the CRAB infection was eliminated
[1]; Patient 5, 3 × 4 million IU, colonization with CRAB persisted
  result of treatment: successfully eradicated CRAB from the bloodstream and from pulmonary samples
[1]; Patient 6, second treatment cycle, recurrent CRAB bloodstream infection, blood stream samples
  result of treatment: eradication of CRAB within 3 days of treatment
[1]; Patient 7, first treatment cycle, 6 days of CMS
  result of treatment: successful eradication of CRAB from wound samples
[1]; Patient 7, second treatment cycle, 4.5 million IU twice daily, resistant colonization remained
  result of treatment: the bloodstream infection was successfully eradicated
[5]
  renal function (eGFR) under treatment: gradual decline of renal function
[3]; in vivo
  mean CMS trough level: 1.6 mg/L
[3]; plasma, sampled 30 min after CMS injection, all patients pooled, mean (±SD), n = 381, HPLC-MS/MS, unit not given
  mean CMS peak level: 8.7 (±4.1, n = 381)
[4]
  portion of CMS undergoing renal excretion: about two thirds
  elimination by prolonged intermittent RRT: up to 50%
